Consider 4 molecules from patent US9926324B2, “Heteroaromatic compounds as PI3 kinase modulators and methods of use” (Calitor Sciences, LLC, priority 2012, dated 2018).

The term IC50 denotes the midpoint of a concentration-inhibition curve. As usually defined, the AUC(0-t) is the area under the concentration-time curve up to a stated or last time point. Broadly, the CLint scaled is the capacity of the preparation to metabolise the compound, expressed as a volume cleared per time.

Molecules are shown by their SMILES.

One data set concerns the target T1, mTOR (h) (Homo sapiens, UniProt P42345).
T1 construct: purchased Millipore UK Ltd (assay service)
Briefly: mTOR (h) kinase assay (33P-ATP, filter). Format: biochemical. The protocol: mTOR (h) is incubated with 50 mM HEPES pH 7.5, 1 mM EDTA, 0.01% Tween 20, 2 mg/mL substrate, 3 mM Manganese Chloride and [γ-^33P-ATP] (specific activity approx. 500 cpm/pmol, concentration as required). The reaction is initiated by the addition of the MnATP mix. After incubation for 40 minutes at room temperature, the reaction is stopped by the addition of 3% phosphoric acid solution. 10 μL of the reaction is then spotted onto a P30 filtermat and washed three times for 5 minutes in 75 mM phosphoric acid and once in methanol prior to drying and scintillation counting.
(§1) The kinase assays described herein were performed at Millipore UK Ltd, Dundee Technology Park, Dundee DD2 1SW, UK.

The next data set deals with U87MG glioblastoma cells. In words: Tumor xenograft model (U87MG), tumor growth inhibition. Format: in vivo, athymic nude mice. As to the method: The efficacy of compounds disclosed herein was evaluated in a standard murine model of tumorigenesis. Human tumor cells (U87MG glioblastoma cells from ATCC) were expended in culture, harvested, and injected subcutaneously onto the rear flank of 6-7 week old female athymic nude mice (BALB/cA nu/nu, Hunan SLAC Laboratory Animal, Co.) (n=6-10 for vehicle group and for each dosing group). When tumors reached a volume of 100-250 mm^3, animals were randomly divided into vehicle control (for example, 5% DMSO+70% Captisol® (30%), 7% HCl (pH1), 18% Captisol® (30%); or 7% DMSO, 7% HCl (pH1), 70% Captisol® (30%), 16% Captisol® (30%), or the like) and compound groups. Subsequent administration of compound by oral gavage begins anywhere from day 0 to day 15 post tumor cell challenge and generally continues with once a day for the duration of the experiment.
Progression of tumor growth is assessed by tumor volumes and recorded as a function of time. The long (L) and short (W) axes of the subcutaneous tumors were measured with calipers twice weekly, and the tumor volume (TV) calculated as (L×W^2)/2). TGI was calculated from the difference between the median tumor volumes of vehicle-treated and drug-treated mice, expressed as a percentage of the median tumor volume of the vehicle-treated control group, by the following relation:
Initial statistical analysis is done by repeated measures analysis of variance (RMANOVA), followed by Scheffe psot hoc testing for multiple comparisons. Vehicle alone (5% DMSO+70% Captisol® (30%), 7% HCl (pH1), 18% Captisol® (30%); or 7% DMSO, 7% HCl (pH1), 70% Captisol® (30%), 16% Captisol® (30%), or the like) is the negative control.

Data set [1] can be described thus: Pharmacokinetic profiles in mice after intravenous and oral administration. Format: in vivo. The following applies: Mouse; for F: oral dose generally 5 or 10 mg/kg; for AUC(0-t) / half-life / Vd: plasma; for Vd: read-out: Vss. The protocol: The compounds disclosed herein are assessed in pharmacokinetic studies in mice, rats, dogs or monkeys. The compounds are administered as a water solution, 2% HPMC+1% TWEEN® 80 in water solution, 5% DMSO+5% solutol in saline, 4% MC suspension or capsule. For the intravenous administration, the animals are generally given at 1 or 2 mg/kg dose. For the oral (p.o.) dosing, mice and rats are generally given 5 or 10 mg/kg dose, and dogs and monkeys are generally given 10 mg/kg dose. The blood samples (0.3 mL) are drawn at 0.25, 0.5, 1.0, 2.0, 3.0, 4.0, 6.0, 8.0, 12 and 24 h time points or 0.083, 0.25, 0.5, 1.0, 2.0, 4.0, 6.0, 8.0 and 24 h time points and centrifuged at 3,000 or 4000 rpm for 2 to 10 min. The plasma solutions are collected, stored at −20° C. or −70° C. until analyzed by LC/MS/MS as described above.

Data set [2] can be described thus: Compound stability in human liver microsomes. Format: in vitro ADME. As to conditions: for Human T1/2 / half-life at 5 μM: human liver microsomes 0.5 mg protein/mL, compound 5 μM, NADPH 1.0 mM, 37° C.; for half-life at 5 μM / CLint scaled at 5 μM: pH 7.4; for half-life at 5 μM: read-out: Human T1/2; for CLint scaled at 5 μM: human liver microsomes, in vivo CLint extrapolated. A digest of the protocol: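 Compounds at 5 μM were incubated with human or rat liver microsomes (0.5 mg protein/mL) and 1.0 mM NADPH in 100 mM phosphate pH 7.4 (0.05% DMSO) at 37 °C, sampled 0–60 min. Remaining parent, quantified by LC/MS/MS as % of zero time, gave extrapolated CLint.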

The next data set addresses T2, PI3K (p120γ) (h) (Homo sapiens, UniProt P48736).
T2 construct: purchased Millipore UK Ltd (assay service)
Briefly: PI3K p120γ (h) non-radioactive HTRF assay. Format: biochemical. The protocol: PI3K (p120γ) (h) is incubated in assay buffer containing 10 μM phosphatidylinositol-4,5-bisphosphate and MgATP (concentration as required). The reaction is initiated by the addition of the MgATP mix. After incubation for 30 minutes at room temperature, the reaction is stopped by the addition of stop solution containing EDTA and biotinylated phosphatidylinositol-3,4,5-trisphosphate. Finally, detection buffer is added, which contains europium-labelled anti-GST monoclonal antibody, GST-tagged GRP1 PH domain and streptavidin-allophycocyanin. The plate is then read in timeresolved fluorescence mode and the homogenous time-resolved fluorescence (HTRF) signal is determined according to the formula HTRF=10000×(Em665 nm/Em620 nm).
as §1

T2 sequence (P48736 whole entry): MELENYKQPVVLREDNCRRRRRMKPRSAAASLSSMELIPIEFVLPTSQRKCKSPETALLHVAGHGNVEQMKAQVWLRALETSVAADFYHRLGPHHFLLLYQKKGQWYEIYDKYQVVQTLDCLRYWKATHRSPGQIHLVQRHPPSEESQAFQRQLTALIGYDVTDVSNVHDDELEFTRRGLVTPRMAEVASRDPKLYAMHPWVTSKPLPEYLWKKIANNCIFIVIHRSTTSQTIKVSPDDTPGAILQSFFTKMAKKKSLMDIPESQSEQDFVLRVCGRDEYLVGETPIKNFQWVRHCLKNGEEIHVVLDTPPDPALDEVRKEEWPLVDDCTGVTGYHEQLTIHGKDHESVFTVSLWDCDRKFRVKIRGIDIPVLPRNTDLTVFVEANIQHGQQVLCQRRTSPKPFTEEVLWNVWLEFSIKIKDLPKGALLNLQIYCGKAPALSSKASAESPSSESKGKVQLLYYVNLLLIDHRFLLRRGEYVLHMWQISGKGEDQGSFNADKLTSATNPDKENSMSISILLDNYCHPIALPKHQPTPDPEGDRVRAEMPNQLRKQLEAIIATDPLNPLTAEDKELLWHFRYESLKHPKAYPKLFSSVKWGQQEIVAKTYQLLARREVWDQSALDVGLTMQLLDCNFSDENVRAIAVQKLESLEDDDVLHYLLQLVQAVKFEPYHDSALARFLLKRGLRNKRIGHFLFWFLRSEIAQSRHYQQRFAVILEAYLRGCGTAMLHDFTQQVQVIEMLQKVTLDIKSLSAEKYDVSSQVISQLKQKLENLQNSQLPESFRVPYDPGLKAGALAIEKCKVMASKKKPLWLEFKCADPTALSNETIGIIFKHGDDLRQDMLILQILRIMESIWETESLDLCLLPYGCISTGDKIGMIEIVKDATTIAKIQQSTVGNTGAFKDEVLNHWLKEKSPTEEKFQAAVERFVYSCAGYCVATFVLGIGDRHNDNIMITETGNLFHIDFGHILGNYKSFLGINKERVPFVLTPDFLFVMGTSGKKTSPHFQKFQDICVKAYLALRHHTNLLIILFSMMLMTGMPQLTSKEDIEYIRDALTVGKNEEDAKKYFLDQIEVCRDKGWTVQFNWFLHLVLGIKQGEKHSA

Regarding `COc1ncc(-c2ccc3ncc(C#CCO)n3n2)cc1NS(=O)(=O)c1ccc(F)cc1F` [Ex. 9, 2,4-difluoro-N-(5-(3-(3-hydroxyprop-1-yn-1-yl)imidazo[1,2-b]pyridazin-6-yl)-2-methoxypyridin-3-yl)benzenesulfonamide], on mTOR (h), the 50% inhibitory concentration (IC50) is 9 nM. For the same molecule, in the data set with U87MG glioblastoma cells (1 mg/kg oral gavage, 12 days), the “TGI % U87MG” value is reported as 23%. The “TGI % U87MG” value in the data set on U87MG glioblastoma cells (3 mg/kg oral gavage, 12 days) is 26%. The “TGI % U87MG” value in the data set with U87MG glioblastoma cells (10 mg/kg oral gavage, 12 days) amounted to 62%. The molecule also gave a F in data set [1] (iv dose 2 mg/kg) of 118.7%. Further, in data set [1] (iv dosing 2 mg/kg), the Cl/F worked out at 6.17 mL/min/kg, the AUC(0-t) worked out at 5330 ng·h/mL, the half-life was 4.02 h and the Vd is 0.57 L/kg. Moreover, in data set [2], the “Human T1/2” value was “∞”.

Regarding `COc1ncc(-c2ccc3ncc(C#CCO)n3c2)cc1NS(=O)(=O)c1ccc(F)cc1F` [Ex. 15, 2,4-difluoro-N-(5-(3-(3-hydroxyprop-1-yn-1-yl)imidazo[1,2-a]pyridin-6-yl)-2-methoxypyridin-3-yl)benzenesulfonamide], on PI3K (p120γ) (h), the IC50 is 37 nM. For the same molecule, on mTOR (h), half-maximal inhibition (IC50) was put at 34 nM. In addition, the “TGI % U87MG” value in the data set on U87MG glioblastoma cells (3 mg/kg oral gavage, 12 days) came out at 28%. Besides, in the data set with U87MG glioblastoma cells (10 mg/kg oral gavage, 12 days), the “TGI % U87MG” value is recorded as 51%. The same molecule registered a F in data set [1] (iv dose 1 mg/kg) of 116.9%. Besides, in data set [1] (iv dosing 1 mg/kg), the area under the curve AUC(0-t) is 20000 ng·h/mL and the half-life was 2.83 h. For the same molecule, in data set [2], the half-life at 5 μM stood at 8.39 h and the CLint scaled at 5 μM is 3.45 mL/min/kg.

On to `COc1ncc(-c2ccc3ncc(C#CC(C)O)n3c2)cc1NS(=O)(=O)c1ccc(F)cc1F` (stereo not drawn) [Ex. 16, 2,4-difluoro N (5 (3 (3 hydroxybut-1-yn-1-yl)imidazo[1,2-a]pyridin-6-yl)-2-methoxypyridin-3-yl)benzenesulfonamide], for which the IC50 on PI3K (p120γ) (h) was determined as 5 nM; against mTOR (h) it was 31 nM. The “TGI % U87MG” value amounted to 14% in the data set on U87MG glioblastoma cells (3 mg/kg oral gavage, 12 days) and 43% with U87MG glioblastoma cells (10 mg/kg oral gavage, 12 days). In data set [2], the half-life at 5 μM was found to be 5.22 h. Besides, in data set [2], the CLint scaled at 5 μM is 5.55 mL/min/kg.

Regarding `COc1ncc(-c2ccc3ncc(C#N)n3n2)cc1NS(=O)(=O)c1ccc(F)cc1F` [Ex. 24, N-(5-(3-cyanoimidazo[1,2-b]pyridazin-6-yl)-2-methoxypyridin-3-yl)-2,4-difluorobenzenesulfonamide], the IC50 came out at 4 nM at PI3K (p120γ) (h) and 3 nM on mTOR (h). Moreover, the “TGI % U87MG” value is reported as 53% in the data set with U87MG glioblastoma cells (0.3 mg/kg oral gavage, 9 days); 84% in the data set on U87MG glioblastoma cells (1 mg/kg oral gavage, 9 days); 108% with U87MG glioblastoma cells (3 mg/kg oral gavage, 9 days). In data set [1] (iv dose 2 mg/kg), this molecule displayed an F of 72.6%. Also, the Cl/F in data set [1] (iv dosing 2 mg/kg) amounted to 0.33 mL/min/kg. In data set [1] (iv dosing 2 mg/kg), this molecule registered an AUC(0-t) of 96100 ng·h/mL. In addition, the half-life in data set [1] (iv dosing 2 mg/kg) was 5.25 h. In addition, the Vd in data set [1] (iv dosing 2 mg/kg) was found to be 0.14 L/kg. Also, the “Human T1/2” value in data set [2] is “∞”.
